Patent US20090131470A1, “PYRAZOLE-SUBSTITUTED BENZIMIDAZOLE DERIVATIVES FOR USE IN THE TREATMENT OF CANCER AND AUTOIMMUNE DISORDERS” (priority 2005, published 2009)

Key:
Format in all cases: biochemical
PDK1 = target: T1, PDK1 (Homo sapiens, UniProt O15530); test: PDK1 kinase assay (33P peptide phosphorylation); conditions: 0.01 mM ATP, 60 min at 30° C.; read-out: PDK-1 IC50
T1 sequence (O15530 1-556): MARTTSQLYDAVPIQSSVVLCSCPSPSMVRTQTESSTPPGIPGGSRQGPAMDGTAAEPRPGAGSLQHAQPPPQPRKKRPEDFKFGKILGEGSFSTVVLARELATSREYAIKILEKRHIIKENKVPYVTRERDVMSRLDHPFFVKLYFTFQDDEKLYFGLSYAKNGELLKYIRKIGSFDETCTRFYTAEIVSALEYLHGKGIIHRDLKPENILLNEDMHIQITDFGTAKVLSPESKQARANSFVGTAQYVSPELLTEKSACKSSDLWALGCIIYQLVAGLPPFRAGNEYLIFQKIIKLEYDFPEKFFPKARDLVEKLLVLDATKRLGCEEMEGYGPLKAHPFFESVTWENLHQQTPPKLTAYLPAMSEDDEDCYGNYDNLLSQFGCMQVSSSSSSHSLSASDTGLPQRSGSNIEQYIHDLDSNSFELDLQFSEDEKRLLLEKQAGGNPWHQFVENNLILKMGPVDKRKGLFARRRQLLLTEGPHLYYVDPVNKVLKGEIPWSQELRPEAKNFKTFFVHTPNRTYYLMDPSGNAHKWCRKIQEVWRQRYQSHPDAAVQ
Procedure: (§1) The assay mixture containing the inhibitor and PDK1 enzyme was mixed together in a microtiter plate in a final volume of 50 μl and incubated for 60 min at 30° C. The assay mixture contained 0.01 mM unlabeled ATP, 0.01 μCi/μl ^33P-γ-ATP, 0.075 mM peptide, 0.1 mg/ml BSA, 7.5 mM magnesium acetate, 0.05M Tris.HCl, pH 7.5, 0.5% 2-mercaptoethanol. The reaction was stopped by adding 50 μl of 50 mM phosphoric acid. 90 μl of the mixture were transferred to a pre-wetted 96-well Multiscreen MAPHNOB filtration plate (Millipore) and filtered on a vacuum manifold. The filter plate was washed with 3 successive additions of 200 μl 50 mM phosphoric acid and then with 100 μl methanol. The filtration plate was dried for 10 min at 65° C., scintillant added and phosphorylated peptide quantified in a scintillation counter (Trilux, PerkinElmer)

GST-Chk1 enzyme = target: T2, GST-Chk1 enzyme (Homo sapiens, UniProt O14757); test: Chk1 kinase assay (33P Chktide phosphorylation); conditions: 0.01 mM ATP, 40 minutes at 30° C.; read-out: CHK-1 IC50
T2 sequence (O14757 1-476): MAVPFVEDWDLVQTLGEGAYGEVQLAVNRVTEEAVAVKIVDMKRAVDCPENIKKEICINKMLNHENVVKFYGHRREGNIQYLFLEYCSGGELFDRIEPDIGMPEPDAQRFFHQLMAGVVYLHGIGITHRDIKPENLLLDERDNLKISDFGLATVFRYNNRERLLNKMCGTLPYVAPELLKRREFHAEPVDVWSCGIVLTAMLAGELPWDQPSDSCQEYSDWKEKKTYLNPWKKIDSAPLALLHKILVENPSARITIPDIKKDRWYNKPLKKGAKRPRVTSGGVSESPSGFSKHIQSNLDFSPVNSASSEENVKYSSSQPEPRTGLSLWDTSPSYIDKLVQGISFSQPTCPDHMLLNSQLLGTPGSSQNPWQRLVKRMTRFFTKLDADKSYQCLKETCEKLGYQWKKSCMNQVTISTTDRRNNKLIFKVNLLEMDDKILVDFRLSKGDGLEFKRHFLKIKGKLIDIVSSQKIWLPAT
Procedure: as §1, with “Chk1” for “PDK1”, “40 minutes” for “60 min”, “The assay mixture contained 0.01 mM unlabeled ATP, 0.01 μCi/μl ^33P-γ-ATP, 0.075 mM peptide, 0.1 mg/ml BSA, 7.5 mM magnesium acetate, 0.05M Tris.HCl, pH 7.5, 0.5% 2-mercaptoethanol.” left out, “was” for “were”, “multi-screen” for “Multiscreen”

Akt1 = target: T3, Akt1 (Homo sapiens, UniProt P31749); test: Akt1 kinase assay (Histone H1 substrate); conditions: 200 μM ATP, read-out: AKT-1 IC50
T3 construct: purchased Upstate
Procedure: (§2) Assays for the cyclin dependent kinase activity were carried out by monitoring the phosphorylation of a synthetic peptide, HATTPKKKRK. The assay mixture containing the inhibitor and CDK-2 enzyme, complexed with cyclin A (0.4 U/ml) was mixed together in a microtiter plate in a final volume of 50 μl and incubated for 40 min at 30° C. The assay mixture contained 0.1 mM unlabeled ATP, 0.01 μCi/μl ^33P-γ-ATP, 0.03 mM peptide, 0.1 mg/ml BSA, 7.5 mM magnesium acetate, 50 mM HEPES-NaOH, pH 7.5. The reaction was stopped by adding 50 μl of 50 mM phosphoric acid. 90 μl of the mixture were transferred to a pre-wetted 96-well Multiscreen MAPHNOB filtration plate (Millipore) and filtered on a vacuum manifold. The filter plate was washed with 3 successive additions of 200 μl 50 mM phosphoric acid and then with 100 μl methanol. The filtration plate was dried for 10 min at 65° C., scintillant added and phosphorylated peptide quantified in a scintillation counter (Trilux, PerkinElmer)
Protocol for the Akt assay is the same for CDK2 except that, 3 nM Akt1 (Upstate) was used with Histone H1 as substrate with a final ATP concentration of 200 μM. The reaction was incubated at 30° C. for 40 minutes.

PKA = target: T4, PKA (Homo sapiens, UniProt P17612); test: PKA kinase assay (Kemptide substrate); conditions: 100 μM ATP
T4 construct: purchased Upstate
Procedure: as §2, with “The” for “Assays for the cyclin dependent kinase activity were carried out by monitoring the phosphorylation of a synthetic peptide, HATTPKKKRK. The”
The PKA assay was incubated at 30° C. for 30 minutes.

[1] = target: CDK-2 enzyme, complexed with cyclin A (Homo sapiens, UniProt P24941); test: CDK2 kinase assay (33P peptide phosphorylation); conditions: 0.1 mM ATP, cyclin A complex
Procedure: as §2, with “The” for “Assays for the cyclin dependent kinase activity were carried out by monitoring the phosphorylation of a synthetic peptide, HATTPKKKRK. The”

T3 sequence (P31749 whole entry, species assumed): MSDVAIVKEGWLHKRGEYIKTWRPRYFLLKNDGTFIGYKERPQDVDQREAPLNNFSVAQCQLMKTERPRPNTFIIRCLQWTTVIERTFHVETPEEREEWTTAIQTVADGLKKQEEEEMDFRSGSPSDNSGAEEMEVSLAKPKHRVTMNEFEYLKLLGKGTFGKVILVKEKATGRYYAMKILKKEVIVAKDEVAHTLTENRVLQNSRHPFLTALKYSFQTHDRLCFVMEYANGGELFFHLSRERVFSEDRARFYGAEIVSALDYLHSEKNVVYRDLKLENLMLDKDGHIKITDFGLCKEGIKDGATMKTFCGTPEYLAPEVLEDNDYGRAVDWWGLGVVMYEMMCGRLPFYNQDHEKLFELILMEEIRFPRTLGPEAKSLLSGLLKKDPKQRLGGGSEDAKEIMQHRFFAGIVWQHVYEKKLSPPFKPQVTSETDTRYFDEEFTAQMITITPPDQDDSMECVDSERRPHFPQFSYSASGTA

Compound	IC50 (PDK1) [µM]	IC50 (GST-Chk1 enzyme) [µM]	IC50 (Akt1) [µM]	IC50 (PKA) [µM]	IC50 [1] [µM]
O=C(NC1CCNCC1)c1c[nH]nc1-c1nc2ccccc2[nH]1 [Example 20]	0.323	0.252	> 50	32.1	6.36
Cc1[nH]nc(-c2nc3ccc(NC(=O)C(C)C)cc3[nH]2)c1C(=O)NC1CCN(C)CC1 [Example 21]	0.074	0.006	> 50	13.1	21.3
Cc1[nH]nc(-c2nc3cc4cn[nH]c4cc3[nH]2)c1C(=O)NCC1CCNCC1 [Example 22]	0.11	0.094	36.1	6.4	31
Cc1[nH]nc(-c2nc3cc(-c4cccc5c4CCO5)ccc3[nH]2)c1C(=O)NC1CCNCC1 [Example 23]	0.125	0.015	25.6	5.36	21.1
Cc1[nH]nc(-c2nc3cc(C(=O)NC(C)C)ccc3[nH]2)c1C(=O)NC1CCNCC1 [Example 24]	0.046	0.036	34.5	10.7	6.42
Cc1[nH]nc(-c2nc3cc4ccccc4cc3[nH]2)c1C(=O)NCC1CCCN1 (stereo not drawn) [Example 26]	0.521	0.309	> 50	34.7	34.2
Cc1[nH]nc(-c2nc3cc4ccccc4cc3[nH]2)c1C(=O)NCC1CCNC1 (stereo not drawn) [Example 27]	0.143	0.004	> 50	8.31	6.24
Cc1[nH]nc(-c2nc3cc4ccccc4cc3[nH]2)c1C(=O)NCC1CCCNC1 (stereo not drawn) [Example 28]	0.125	0.008	> 50	8.99	8.5
Cc1cc2nc(-c3n[nH]c(C)c3C(=O)NC3CCN(C)CC3)[nH]c2cc1C [Example 29]	0.18	0.016	> 50	5.98	8.24
Cc1[nH]nc(-c2nc3ccccc3[nH]2)c1C(=O)NC1CCN(C)CC1 [Example 30]	0.139	0.0635	11.8	20.2	2.21
COCCNC(=O)c1ccc2nc(-c3n[nH]c(C)c3C(=O)NC3CCNCC3)[nH]c2c1 [Example 31]	0.073	0.002	31.4	8.04	11.4
Cc1[nH]nc(-c2nc3ccc(C(=O)NCC(C)c4ccccc4)cc3[nH]2)c1C(=O)NC1CCNCC1 (stereo not drawn) [Example 32]	0.036	0.003	18.1	6.5	15.6
Cc1[nH]nc(-c2nc3ccc(NC(=O)CC(C)C)cc3[nH]2)c1C(=O)NC1CCN(C)CC1 [Example 33]	0.095	0.003	47.5	13.1	21.3
Cc1[nH]nc(-c2nc3cc(F)c(NC(=O)C4CC4)cc3[nH]2)c1C(=O)NC1CCN(C)CC1 [Example 34]	0.216	0.013	44.1	28.4	20.6
Cc1[nH]nc(-c2nc3ccc(C(=O)NCC(O)c4ccccc4)cc3[nH]2)c1C(=O)NC1CCNCC1 (stereo not drawn) [Example 35]	0.057	0.037	10.6	5.31	13.8
Cc1[nH]nc(-c2nc3ccc(C(C)(C)C)cc3[nH]2)c1C(=O)NC1CCNCC1 [Example 37]	0.049	0.006	> 10	4.95	1.85
Cc1[nH]nc(-c2nc3ccc(C(F)(F)F)cc3[nH]2)c1C(=O)NC1CCNCC1 [Example 38]	0.032	0.058	> 10	16.9	19.3
Cc1[nH]nc(-c2nc3ccc(C(F)(F)F)cc3[nH]2)c1C(=O)NCC1CCCNC1 (stereo not drawn) [Example 39]	0.086	0.049	> 10	> 50	> 50
Cc1[nH]nc(-c2nc3ccc(C4CC4)cc3[nH]2)c1C(=O)NC1CCNCC1 [Example 40]	0.02	0.022	> 10	2.86	23.7
Cc1[nH]nc(-c2nc3ccc(C(C)(C)C)cc3[nH]2)c1C(=O)N[C@@H]1CN2CCC1CC2 [Example 41]	0.052	0.025	> 10	2.12	> 50
Cc1[nH]nc(-c2nc3ccc(C(C)C)cc3[nH]2)c1C(=O)NC1CN2CCC1CC2 (stereo not drawn) [Example 42]	0.045	0.05	> 10	3.82	9.67
Cc1[nH]nc(-c2nc3ccc(C(C)C)cc3[nH]2)c1C(=O)N[C@@H]1CN2CCC1CC2 [Example 43]	0.022	0.026	> 10	2.02	14.7
Cc1[nH]nc(-c2nc3cc(Cl)c(C(C)C)cc3[nH]2)c1C(=O)NC1CN2CCC1CC2 (stereo not drawn) [Example 44]	0.14	0.091	> 10	12	> 50
Cc1[nH]nc(-c2nc3cc(Cl)c(C(C)C)cc3[nH]2)c1C(=O)NC1CCNCC1 [Example 45]	0.013	0.013	> 10	5.13	11.9
